{
  "source": "paper PMC2770256",
  "about": "(Journal of molecular biology, 2009)",
  "target": "Ypt1p (His6-Ypt1p 1-180) (Saccharomyces cerevisiae, UniProt P01123)",
  "sequence (P01123 1-180)": "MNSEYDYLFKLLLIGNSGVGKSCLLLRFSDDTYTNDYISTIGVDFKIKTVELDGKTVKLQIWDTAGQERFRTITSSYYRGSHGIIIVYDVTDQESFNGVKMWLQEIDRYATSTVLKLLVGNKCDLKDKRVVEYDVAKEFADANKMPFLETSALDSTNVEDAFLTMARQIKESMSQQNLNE",
  "test": "stopped-flow fluorescence",
  "type": "binding",
  "conditions": "pH 8.0, 25 °C, 5 mM MgCl2; labelled compound; nucleotide-free Ypt1p; association rate constant",
  "data": [
    {"smiles": "CNc1ccccc1C(=O)O[C@H]1C[C@H](n2cnc3c(=O)[nH]c(N)nc32)O[C@@H]1COP(=O)(O)OP(=O)(O)O", "note": "[mant-dGDP]", "values": [
      {"measurement": "Value", "value": "0.096 (±0.004) μM^-1 s^-1"}
    ]}
  ]
}
